According to article PMC5484114 (Marine Drugs, 2017):
Where a SMILES comes first, the peptide text is derived from it. Bridges are numbered along the chain shown (N, C = ends). Roman numbers before positions name the chains, in order.

Tests used:
hα9α10 nAChR = hα9α10 nAChR (Homo sapiens, UniProt Q9GZZ6+Q9UGM1); experiment: cell-based; format: cell-based
hα3β2 nAChR = format: cell-based, human
hα4β2 nAChR = format: cell-based, human
hα3β4 nAChR = format: cell-based, human
hα4β4 nAChR = format: cell-based, human
hα7 nAChR = format: cell-based, human
nAChR subtypes = format: cell-based, human; rodent

Chain of hα9α10 nAChR (Q9UGM1 26-479 limits assumed): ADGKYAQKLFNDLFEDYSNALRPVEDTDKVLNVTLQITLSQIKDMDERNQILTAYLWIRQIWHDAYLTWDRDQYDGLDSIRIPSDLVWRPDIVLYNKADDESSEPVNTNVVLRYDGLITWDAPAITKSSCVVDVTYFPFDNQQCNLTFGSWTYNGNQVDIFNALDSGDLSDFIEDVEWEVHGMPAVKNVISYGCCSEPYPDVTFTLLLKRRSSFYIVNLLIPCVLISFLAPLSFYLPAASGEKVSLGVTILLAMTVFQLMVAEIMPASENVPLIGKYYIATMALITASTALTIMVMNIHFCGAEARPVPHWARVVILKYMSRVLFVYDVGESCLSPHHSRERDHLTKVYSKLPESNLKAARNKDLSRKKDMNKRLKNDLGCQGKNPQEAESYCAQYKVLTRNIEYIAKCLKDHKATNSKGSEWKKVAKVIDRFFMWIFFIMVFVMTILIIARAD
Chain of hα9α10 nAChR (Q9GZZ6 25-450 limits assumed): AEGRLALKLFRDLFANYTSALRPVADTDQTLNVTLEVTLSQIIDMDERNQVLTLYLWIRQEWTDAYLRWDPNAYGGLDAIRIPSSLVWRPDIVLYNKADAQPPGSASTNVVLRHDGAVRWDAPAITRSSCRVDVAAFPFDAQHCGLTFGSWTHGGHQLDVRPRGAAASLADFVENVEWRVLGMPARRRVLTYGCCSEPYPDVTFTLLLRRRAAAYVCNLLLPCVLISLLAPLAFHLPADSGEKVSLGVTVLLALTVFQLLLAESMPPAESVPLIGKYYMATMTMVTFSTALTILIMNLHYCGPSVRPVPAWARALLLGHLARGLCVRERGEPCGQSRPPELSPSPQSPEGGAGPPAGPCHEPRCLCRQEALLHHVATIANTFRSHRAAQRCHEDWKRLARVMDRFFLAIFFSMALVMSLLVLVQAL

In the case of `CC(C)C[C@H](NC(=O)[C@H](CO)NC(=O)[C@@H]1CSSC[C@H](NC(=O)[C@@H]2CCCN2C(=O)[C@H](CCCNC(=N)N)NC(=O)[C@H](Cc2c[nH]cn2)NC(=O)[C@@H](NC(=O)[C@@H](N)CC(=O)O)C(C)C)C(=O)N[C@@H](CCC(N)=O)C(=O)N[C@@H](CO)C(=O)N[C@@H](C(C)C)C(=O)N[C@@H](CCCNC(=N)N)C(=O)N2CCC[C@H]2C(=O)NCC(=O)N[C@@H](CCCNC(=N)N)C(=O)N[C@@H](C(C)C)C(=O)N[C@@H](Cc2c[nH]c3ccccc23)C(=O)NCC(=O)N[C@@H](CCCCN)C(=O)N[C@H](C(=O)N[C@@H](CO)C(=O)N[C@@H](CC(C)C)C(=O)O)CSSC[C@H](NC(=O)[C@@H]2CCCN2C(=O)[C@H](CCCNC(=N)N)NC(=O)[C@H](Cc2c[nH]cn2)NC(=O)[C@@H](NC(=O)[C@@H](N)CC(=O)O)C(C)C)C(=O)N[C@@H](CCC(N)=O)C(=O)N[C@@H](CO)C(=O)N[C@@H](C(C)C)C(=O)N[C@@H](CCCNC(=N)N)C(=O)N2CCC[C@H]2C(=O)NCC(=O)N[C@@H](CCCNC(=N)N)C(=O)N[C@@H](C(C)C)C(=O)N[C@@H](Cc2c[nH]c3ccccc23)C(=O)NCC(=O)N[C@@H](CCCCN)C(=O)N1)C(=O)O` [NTD] (I: H-DVHRPCQSVRPGRVWGKCSL-OH / II: H-DVHRPCQSVRPGRVWGKCSL-OH; disulfide I:6-II:18, I:18-II:6), the “Hill Slope (nH) at hα9α10” value (hα9α10 nAChR) is reported as −0.9, the “reduction of ACh-evoked current amplitude at hα3β2” value (hα3β2 nAChR) is reported as “approximately 50%” and the “reduction of ACh-evoked current amplitude at hα4β2” value (hα4β2 nAChR) is reported as “approximately 50%”. The “effect on ACh-evoked currents of hα3β4” value (hα3β4 nAChR) was “not markedly affected”, the “effect on ACh-evoked currents of hα4β4” value (hα4β4 nAChR) was “not markedly affected” and the “effect on ACh-evoked currents of hα7” value (hα7 nAChR) was “not markedly affected”. The nAChR subtype preference (nAChR subtypes) was “prefers β2-containing rather than β4-containing nAChR subtypes”.
Compound `CC(C)[C@@H]1NC(=O)[C@H](CCCNC(=N)N)NC(=O)CNC(=O)[C@@H]2CCCN2C(=O)[C@H](CCCNC(=N)N)NC(=O)[C@H](C(C)C)NC(=O)[C@H](CO)NC(=O)[C@H](CCC(N)=O)NC(=O)[C@@H](N)CSSC[C@@H](C(=O)O)NC(=O)[C@H](CCCCN)NC(=O)CNC(=O)[C@H](Cc2c[nH]c3ccccc23)NC(=O)[C@H](C(C)C)NC(=O)[C@H](CCCNC(=N)N)NC(=O)CNC(=O)[C@@H]2CCCN2C(=O)[C@H](CCCNC(=N)N)NC(=O)[C@H](C(C)C)NC(=O)[C@H](CO)NC(=O)[C@H](CCC(N)=O)NC(=O)[C@@H]2CCCN2C(=O)CNC(=O)[C@@H]2CCCN2C(=O)[C@H](CCCCN)NC(=O)CNC(=O)[C@H](Cc2c[nH]c3ccccc23)NC1=O` [cNTD] (H-CQSVRPGRVWGKPGPQSVRPGRVWGKC-OH; disulfide 1-27) has an IC50 (hα9α10 nAChR) of 2.66 µM.
